In PubChem BioAssay AID1963451 (Molecular Pharmacology Branch, DTP, NCI, 2024):
Where “and” joins values, the source holds several entries; their conditions need not be identical. Identical values can stand only once.

Test system: 521955-158-R6-J3-PDC complex spheroid growth, % test/control
Assay: Anticancer human tumor 521955-158-R6-J3-PDC patient-derived pancreatic carcinoma cell line growth inhibition [Asc]
Conditions: for viability, T/C: stronger effect = lower value
How it was run: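 Tumor cells were grown as multicellular spheroids with stromal HUVEC and mesenchymal stem cells and treated singly or in combination. Concentrations fell in half-log steps from the clinical Cmax, or from 10 microM where none was known.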

[1] = curve of first compound, second compound 0.0316 µM
[2] = curve of first compound, second compound 0.1 µM
[3] = curve of first compound, second compound 0.316 µM
[4] = curve of first compound, second compound 1 µM
[5] = second compound 0.0316 µM, first compound 0.00316 µM
[6] = second compound 0.0316 µM, first compound 0.01 µM
[7] = second compound 0.0316 µM, first compound 0.0316 µM
[8] = second compound 0.0316 µM, first compound 0.1 µM
[9] = second compound 0.1 µM, first compound 0.00316 µM
[10] = second compound 0.1 µM, first compound 0.01 µM
[11] = second compound 0.1 µM, first compound 0.0316 µM
[12] = second compound 0.1 µM, first compound 0.1 µM
[13] = second compound 0.316 µM, first compound 0.00316 µM
[14] = second compound 0.316 µM, first compound 0.01 µM
[15] = second compound 0.316 µM, first compound 0.0316 µM
[16] = second compound 0.316 µM, first compound 0.1 µM
[17] = second compound 1 µM, first compound 0.00316 µM
[18] = second compound 1 µM, first compound 0.01 µM
[19] = second compound 1 µM, first compound 0.0316 µM
[20] = second compound 1 µM, first compound 0.1 µM
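Note: spheroids exposed to compounds for 7 days.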
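Throughout, for viability, T/C: 100% = DMSO vehicle control wells.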

In the case of `Cn1ncnc1[C@H]1c2n[nH]c(=O)c3cc(F)cc(c23)N[C@@H]1c1ccc(F)cc1` + CNC(C)C(=O)NC1CN(S(=O)(=O)c2cccc(S(=O)(=O)N3CCC4CCC(C(=O)NC(c5ccccc5)c5ccccc5)N4C(=O)C(NC(=O)C(C)NC)C3)c2)CCC2CCC(C(=O)NC(c3ccccc3)c3ccccc3)N2C1=O, the IC50 (curve of first compound, second compound 0.00316 µM) is reported as > 100 nM, the IC50 (curve of first compound, second compound 0.01 µM) is reported as > 100 nM and the IC50 [1] is reported as > 100 nM. For the same molecule, the IC50 [2] was > 100 nM, the IC50 [3] was > 100 nM and the IC50 [4] was > 100 nM. It also gave a viability, T/C (second compound 0.00316 µM, first compound 0.000316 µM) of 188%, a viability, T/C (second compound 0.00316 µM, first compound 0.001 µM) of 151% and a viability, T/C (second compound 0.00316 µM, first compound 0.00316 µM) of 151%. It also gave a viability, T/C (second compound 0.00316 µM, first compound 0.01 µM) of 159%, a viability, T/C (second compound 0.00316 µM, first compound 0.0316 µM) of 163% and a viability, T/C (second compound 0.00316 µM, first compound 0.1 µM) of 140%. For the same molecule, the viability, T/C (second compound 0.01 µM, first compound 0.000316 µM) was 154%, the viability, T/C (second compound 0.01 µM, first compound 0.001 µM) was 171% and the viability, T/C (second compound 0.01 µM, first compound 0.00316 µM) was 142%. It also gave a viability, T/C (second compound 0.01 µM, first compound 0.01 µM) of 146%, a viability, T/C (second compound 0.01 µM, first compound 0.0316 µM) of 153% and a viability, T/C (second compound 0.01 µM, first compound 0.1 µM) of 161%. For the same molecule, the viability, T/C (second compound 0.0316 µM, first compound 0.000316 µM) was 96.4%, the viability, T/C (second compound 0.0316 µM, first compound 0.001 µM) was 79.9% and the viability, T/C [5] was 93.6%. For the same molecule, the viability, T/C [6] was 74.6%, the viability, T/C [7] was 76.9% and the viability, T/C [8] was 92.1%. The viability, T/C (second compound 0.1 µM, first compound 0.000316 µM) was 93.2%, the viability, T/C (second compound 0.1 µM, first compound 0.001 µM) was 79.2% and the viability, T/C [9] was 85.6%. For the same molecule, the viability, T/C [10] was 83%, the viability, T/C [11] was 87.4% and the viability, T/C [12] was 78.2%. The viability, T/C (second compound 0.316 µM, first compound 0.000316 µM) was 84.8%, the viability, T/C (second compound 0.316 µM, first compound 0.001 µM) was 72.6% and the viability, T/C [13] was 83.3%. The viability, T/C [14] was 87.1%, the viability, T/C [15] was 89.3% and the viability, T/C [16] was 84.1%. The viability, T/C (second compound 1 µM, first compound 0.000316 µM) was 73.3%, the viability, T/C (second compound 1 µM, first compound 0.001 µM) was 74.9% and the viability, T/C [17] was 83.9%. The viability, T/C [18] was 74.7%, the viability, T/C [19] was 87.8% and the viability, T/C [20] was 83.2%.

For `CNC(C)C(=O)NC1CN(S(=O)(=O)c2cccc(S(=O)(=O)N3CCC4CCC(C(=O)NC(c5ccccc5)c5ccccc5)N4C(=O)C(NC(=O)C(C)NC)C3)c2)CCC2CCC(C(=O)NC(c3ccccc3)c3ccccc3)N2C1=O` (stereo not drawn) + CCN1C(C(=O)NC23CCC(C(=O)O)(CC2)CC3)C(c2cccc(Cl)c2F)C2(C(=O)Nc3cc(Cl)ccc32)C12CCCCC2, the IC50 (curve of first compound, second compound 0.00949 µM) was > 1000 nM, the IC50 (curve of first compound, second compound 0.03 µM) was > 1000 nM and the IC50 (curve of first compound, second compound 0.0949 µM) was > 1000 nM. The IC50 (curve of first compound, second compound 0.3 µM) was > 1000 nM, the IC50 (curve of first compound, second compound 0.949 µM) was > 1000 nM and the IC50 (curve of first compound, second compound 3 µM) was > 1000 nM. The viability, T/C (second compound 0.00949 µM, first compound 0.00316 µM) was 110%, the viability, T/C (second compound 0.00949 µM, first compound 0.01 µM) was 95.2% and the viability, T/C (second compound 0.00949 µM, first compound 0.0316 µM) was 83.7%. For the same molecule, the viability, T/C (second compound 0.00949 µM, first compound 0.1 µM) was 89.8%, the viability, T/C (second compound 0.00949 µM, first compound 0.316 µM) was 89.7% and the viability, T/C (second compound 0.00949 µM, first compound 1 µM) was 89.7%. It also gave a viability, T/C (second compound 0.03 µM, first compound 0.00316 µM) of 91.8%, a viability, T/C (second compound 0.03 µM, first compound 0.01 µM) of 96% and a viability, T/C (second compound 0.03 µM, first compound 0.0316 µM) of 113%. It also gave a viability, T/C (second compound 0.03 µM, first compound 0.1 µM) of 101%, a viability, T/C (second compound 0.03 µM, first compound 0.316 µM) of 69% and a viability, T/C (second compound 0.03 µM, first compound 1 µM) of 81.5%. It also gave a viability, T/C (second compound 0.0949 µM, first compound 0.00316 µM) of 102%, a viability, T/C (second compound 0.0949 µM, first compound 0.01 µM) of 89.9% and a viability, T/C (second compound 0.0949 µM, first compound 0.0316 µM) of 92.3%. It also gave a viability, T/C (second compound 0.0949 µM, first compound 0.1 µM) of 86.9%, a viability, T/C (second compound 0.0949 µM, first compound 0.316 µM) of 76.9% and a viability, T/C (second compound 0.0949 µM, first compound 1 µM) of 86.2%. For the same molecule, the viability, T/C (second compound 0.3 µM, first compound 0.00316 µM) was 96.2%, the viability, T/C (second compound 0.3 µM, first compound 0.01 µM) was 111% and the viability, T/C (second compound 0.3 µM, first compound 0.0316 µM) was 100%. It also gave a viability, T/C (second compound 0.3 µM, first compound 0.1 µM) of 99.8%, a viability, T/C (second compound 0.3 µM, first compound 0.316 µM) of 93.5% and a viability, T/C (second compound 0.3 µM, first compound 1 µM) of 95%. The viability, T/C (second compound 0.949 µM, first compound 0.00316 µM) was 106%, the viability, T/C (second compound 0.949 µM, first compound 0.01 µM) was 85.1% and the viability, T/C (second compound 0.949 µM, first compound 0.0316 µM) was 93.7%. It also gave a viability, T/C (second compound 0.949 µM, first compound 0.1 µM) of 101%, a viability, T/C (second compound 0.949 µM, first compound 0.316 µM) of 96.8% and a viability, T/C (second compound 0.949 µM, first compound 1 µM) of 109%. The viability, T/C (second compound 3 µM, first compound 0.00316 µM) was 95%, the viability, T/C (second compound 3 µM, first compound 0.01 µM) was 96% and the viability, T/C (second compound 3 µM, first compound 0.0316 µM) was 108%. For the same molecule, the viability, T/C (second compound 3 µM, first compound 0.1 µM) was 86.2%, the viability, T/C (second compound 3 µM, first compound 0.316 µM) was 96.6% and the viability, T/C (second compound 3 µM, first compound 1 µM) was 80.8%.

With `CNC(C)C(=O)NC1CN(S(=O)(=O)c2cccc(S(=O)(=O)N3CCC4CCC(C(=O)NC(c5ccccc5)c5ccccc5)N4C(=O)C(NC(=O)C(C)NC)C3)c2)CCC2CCC(C(=O)NC(c3ccccc3)c3ccccc3)N2C1=O` (stereo not drawn) + Cc1c(S(C)(=O)=O)c(-c2cc(F)cc(N3CCN(c4ccc(NS(=O)(=O)c5ccc(NC(CCN6CCC(C(=O)OCCCP(=O)(O)O)CC6)CSc6ccccc6)c(S(=O)(=O)C(F)(F)F)c5)cc4)CC3)c2)c(-c2ccc(Cl)cc2)n1C(C)C the IC50 [1] was > 1000 nM, the IC50 [2] was > 1000 nM and the IC50 [3] was 5.02 nM. The IC50 [4] was < 3.16 nM, the IC50 (curve of first compound, second compound 3.16 µM) was < 3.16 nM and the IC50 (curve of first compound, second compound 10 µM) was < 3.16 nM. The viability, T/C [5] was 101%, the viability, T/C [6] was 90.1% and the viability, T/C [7] was 80.1%. It also gave a viability, T/C [8] of 72.5%, a viability, T/C (second compound 0.0316 µM, first compound 0.316 µM) of 67.3% and a viability, T/C (second compound 0.0316 µM, first compound 1 µM) of 60.4%. The viability, T/C [9] was 93.4%, the viability, T/C [10] was 64.7% and the viability, T/C [11] was 57.1%. The viability, T/C [12] was 56.4%, the viability, T/C (second compound 0.1 µM, first compound 0.316 µM) was 51.4% and the viability, T/C (second compound 0.1 µM, first compound 1 µM) was 55.4%. It also gave a viability, T/C [13] of 57.3%, a viability, T/C [14] of 38.4% and a viability, T/C [15] of 42.8%. The viability, T/C [16] was 39.4%, the viability, T/C (second compound 0.316 µM, first compound 0.316 µM) was 35.7% and the viability, T/C (second compound 0.316 µM, first compound 1 µM) was 35.5%. The viability, T/C [17] was 31.6%, the viability, T/C [18] was 23.8% and the viability, T/C [19] was 29.6%. The viability, T/C [20] was 19.9%, the viability, T/C (second compound 1 µM, first compound 0.316 µM) was 25.4% and the viability, T/C (second compound 1 µM, first compound 1 µM) was 21.1%. It also gave a viability, T/C (second compound 3.16 µM, first compound 0.00316 µM) of 14.6%, a viability, T/C (second compound 3.16 µM, first compound 0.01 µM) of 13% and a viability, T/C (second compound 3.16 µM, first compound 0.0316 µM) of 16.9%. For the same molecule, the viability, T/C (second compound 3.16 µM, first compound 0.1 µM) was 14.1%, the viability, T/C (second compound 3.16 µM, first compound 0.316 µM) was 12.3% and the viability, T/C (second compound 3.16 µM, first compound 1 µM) was 13.3%. For the same molecule, the viability, T/C (second compound 10 µM, first compound 0.00316 µM) was 10.6%, the viability, T/C (second compound 10 µM, first compound 0.01 µM) was 12% and the viability, T/C (second compound 10 µM, first compound 0.0316 µM) was 8.73%. The viability, T/C (second compound 10 µM, first compound 0.1 µM) was 9.27%, the viability, T/C (second compound 10 µM, first compound 0.316 µM) was 10.4% and the viability, T/C (second compound 10 µM, first compound 1 µM) was 6.75%.

For `C=CC(=O)N1CCN(c2nc(=O)n(-c3c(C)ccnc3C(C)C)c3nc(-c4c(O)cccc4F)c(F)cc23)C(C)C1` (stereo not drawn), the viability, T/C (compound 0.0316 µM) was 104% and 94.7% and 96.5%, the viability, T/C (compound 0.1 µM) was 105% and 107% and 89.4% and the viability, T/C (compound 0.316 µM) was 95.1% and 92% and 95.3%. For the same molecule, the viability, T/C (compound 1 µM) was 111% and 100% and 122%, the viability, T/C (compound 3.16 µM) was 112% and 125% and 121% and the viability, T/C (compound 10 µM) was 93.7% and 124% and 118%. For the same molecule, the IC50 (curve of compound) was > 10000 nM.
